In patent publication US11884961B2, “DNA-glycan conjugates and methods of use” (GEORGIA STATE UNIVERSITY RESEARCH FOUNDATION, INC., priority 2017, dated 2024):

Experiments:
[1] = test system: VK9, a mouse IgG anti-Globo H monoclonal antibody; assay: ELISA of biotinylated glycans captured on streptavidin against VK9; format: binding; details: biotinylated sugars captured on streptavidin; OD450
Description: (§1) Initially we validated the selected system with the conventional ELISA to confirm the antibody binding capacity and specificity of the glycans. Since sugars have low binding affinity for unmodified plastic surfaces, the binding protein, streptavidin, was used to capture biotinylated sugars. In another experiment we also tested DEGL using ELISA to see the effect of different presentation of glycans. For this assay, we coated the DEGL onto plastic surfaces directly. Both naked glycan and DEGL was tested against VK9, a mouse IgG anti-Globo H monoclonal antibody. […] We rationalize this difference in pattern to the different presentation of glycan epitope, all of the four glycans have the same terminal epitope of Fuc a1-2 Gal(b1-3 GalNAc), which is recognized by VK9 antibodies,[38] but a long DNA tag on the DEGL will give more space to the glycan antigens binding with the antibody, while normal ELISA would block the binding of the short glycans of Bb3 and Bb2. […]
(§2) A 96-well plate (Costar® Polystyrene High Binding Plate 3590) was coated with […] of 10 ug/ml Streptavidin (Sigma) in 0.01 M PBS (pH 7.4) at 4° C. overnight. […] The plate was then read at OD450 with a plate reader (PerkinElmer®, 2030 Multilabel Reader Victor®). The result was calculated by minus OD450 value of control (no antibody).

[2] = test system: VK9, a mouse IgG anti-Globo H monoclonal antibody; assay: ELISA of DEGL (glycan-DNA codes coated with Pierce DNA coating solution) against VK9; format: binding; details: glycan-DNA conjugates coated directly onto plastic; OD450
Description: as §1, §2

VK9 antibody = assay: Multiplex detection of DEGL against VK9 antibody by NGS; format: binding, mouse
Procedure: Next, we wanted to translate the results to more promising NGS based parallel screening. Initially we tested the different concentrations of DEGL with different concentrations of VK9 antibody using the PCR and qPCR assays. We incubated 1 uM, 500 nM, 100 nM and 10 nM samples with 0.5 μL, 1 μL, and 2 μL of the VK9 antibody (0.5 μg/μL), and unbound glycans were washed out after precipitating the bound glycan-VK9 complex on protein A/G beads. Each assay was compared to the same amount of DEGL with no VK9 negative control. Then, washed beads were used as the template for the NGS analysis. Briefly, beads were diluted to 20 μL, and from this, 2 μL was used for the initial PCR amplification (18 cycles). PCR products were then purified using AMpure beads (Beckman Coulter) according to the manufacturer's protocol and used for the NGS fusion PCR to incorporate the index codes and ion-torrent NGS adapters. Now about 150 bp DNA codes, it was again purified using AMpure beads, and all barcoded samples were run through an Agilent Bioanalyzer for quality control. Samples were then pooled in equimolar concentration and adjusted to the desired 26 pM for the NGS, analyzed using ion-PGM semiconductor sequencer. Data were analyzed using ‘FASTAPTAMER’ software,[39] and an in house developed program. […]

## Globo-H [GbH]
[1]
  ELISA binding intensity of VK9: very high binding intensities
[2]
  ELISA binding of VK9: strong binding
VK9 antibody; biotin tagged secondary antibody, magnetic streptavidin beads, NGS
  relative enrichment in comparison with the no VK9 negative control: enriched
VK9 antibody; modified method with control sequence added after selection, Globo-H series+A and B glycan DEGL
  enrichment (NGS): selective enrichment
